The text below walks through data of patent US9663508B2, “Biaryl acyl-sulfonamide compounds as sodium channel inhibitors” (AMGEN INC., priority 2013, dated 2017).

In general, IC50 refers to the midpoint of a concentration-inhibition curve. Read a high IC50 as weaker potency in that assay.

Chain of human Nav1.7 (Q15858 whole entry): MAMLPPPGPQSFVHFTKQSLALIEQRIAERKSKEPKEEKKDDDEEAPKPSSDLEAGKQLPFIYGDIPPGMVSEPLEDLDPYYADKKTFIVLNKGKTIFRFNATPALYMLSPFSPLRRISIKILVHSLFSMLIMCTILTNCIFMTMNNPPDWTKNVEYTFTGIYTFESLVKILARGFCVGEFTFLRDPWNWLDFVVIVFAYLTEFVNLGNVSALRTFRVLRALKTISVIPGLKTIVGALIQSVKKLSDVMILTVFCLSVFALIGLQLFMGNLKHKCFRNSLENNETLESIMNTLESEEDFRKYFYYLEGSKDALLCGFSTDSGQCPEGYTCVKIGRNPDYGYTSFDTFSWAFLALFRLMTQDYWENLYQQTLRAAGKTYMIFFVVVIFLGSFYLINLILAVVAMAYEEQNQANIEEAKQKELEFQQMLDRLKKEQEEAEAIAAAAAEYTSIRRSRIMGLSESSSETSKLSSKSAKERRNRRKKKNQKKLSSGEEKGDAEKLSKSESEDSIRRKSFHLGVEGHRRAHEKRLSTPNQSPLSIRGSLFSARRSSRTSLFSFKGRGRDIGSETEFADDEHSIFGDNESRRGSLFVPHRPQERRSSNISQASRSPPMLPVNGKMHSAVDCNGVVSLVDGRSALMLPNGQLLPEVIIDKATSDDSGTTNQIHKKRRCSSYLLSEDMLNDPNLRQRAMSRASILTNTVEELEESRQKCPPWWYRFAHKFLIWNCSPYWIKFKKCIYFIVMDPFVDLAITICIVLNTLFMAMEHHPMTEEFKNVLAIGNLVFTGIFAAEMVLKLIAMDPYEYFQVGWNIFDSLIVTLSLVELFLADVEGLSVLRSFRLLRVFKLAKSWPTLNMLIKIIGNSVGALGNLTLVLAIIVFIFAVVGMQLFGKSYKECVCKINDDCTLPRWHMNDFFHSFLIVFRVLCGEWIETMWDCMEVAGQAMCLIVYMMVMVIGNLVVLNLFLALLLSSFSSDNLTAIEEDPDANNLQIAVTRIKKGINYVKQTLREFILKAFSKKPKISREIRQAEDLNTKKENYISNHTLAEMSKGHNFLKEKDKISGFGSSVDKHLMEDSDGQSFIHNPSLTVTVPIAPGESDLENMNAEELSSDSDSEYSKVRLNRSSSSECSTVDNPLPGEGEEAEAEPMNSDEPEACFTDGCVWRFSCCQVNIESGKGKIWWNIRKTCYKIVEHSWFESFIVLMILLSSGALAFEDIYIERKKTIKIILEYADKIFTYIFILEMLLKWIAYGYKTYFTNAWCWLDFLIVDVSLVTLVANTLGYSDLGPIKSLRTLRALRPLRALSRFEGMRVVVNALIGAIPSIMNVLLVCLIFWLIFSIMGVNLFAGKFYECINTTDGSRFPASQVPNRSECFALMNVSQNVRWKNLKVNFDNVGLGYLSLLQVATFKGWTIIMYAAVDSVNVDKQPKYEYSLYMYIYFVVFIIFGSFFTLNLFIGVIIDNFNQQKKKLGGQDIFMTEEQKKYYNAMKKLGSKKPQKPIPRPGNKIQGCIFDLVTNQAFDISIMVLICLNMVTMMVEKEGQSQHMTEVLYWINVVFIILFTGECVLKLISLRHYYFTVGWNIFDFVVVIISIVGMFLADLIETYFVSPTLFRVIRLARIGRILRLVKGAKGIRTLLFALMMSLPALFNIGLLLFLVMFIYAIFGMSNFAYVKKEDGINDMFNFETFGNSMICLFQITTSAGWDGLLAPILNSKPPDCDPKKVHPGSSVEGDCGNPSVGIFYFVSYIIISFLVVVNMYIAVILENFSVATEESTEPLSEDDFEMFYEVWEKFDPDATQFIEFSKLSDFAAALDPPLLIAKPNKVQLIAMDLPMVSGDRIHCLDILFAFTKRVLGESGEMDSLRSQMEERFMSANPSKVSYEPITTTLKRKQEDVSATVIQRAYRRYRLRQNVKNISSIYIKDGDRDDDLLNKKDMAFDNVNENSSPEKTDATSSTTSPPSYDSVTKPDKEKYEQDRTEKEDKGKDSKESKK

The first test concerns the target human Nav1.7 (Homo sapiens (Human), UniProt Q15858). The experiment in a line: Nav 1.7 in vitro PatchXpress (PX) assay. In kind it is cell-based.
Details: not given
As for `CC[C@@H](Oc1ncc(-c2cc(F)c(C(=O)NS(C)(=O)=O)cc2C)cc1Cl)c1ccc(C)cc1` [Example 685, 4-(5-chloro-6-(((1R)-1-(4-methylphenyl)propyl)oxy)-3-pyridinyl)-2-fluoro-5-methyl-N-(methylsulfonyl)benzamide, 4-(5-chloro-6-(((1S)-1-(4-methylphenyl)propyl)oxy)-3-pyridinyl)-2-fluoro-5-methyl-N-(methylsulfonyl)benzamide], inhibition was half-maximal at 88.1 nM (IC50).

Turning to `Cc1cc(C(=O)NS(C)(=O)=O)c(F)cc1-c1cnc(OC(C(F)(F)F)C(F)(F)F)c(Cl)c1` [Example 686, 4-(5-chloro-6-(2,2,2-trifluoro-1-(trifluoromethyl)ethoxy)-3-pyridinyl)-2-fluoro-5-methyl-N-(methylsulfonyl)benzamide], half-maximal inhibition (IC50) was put at 115 nM.

`Cc1cc(C(=O)NS(C)(=O)=O)c(F)cc1-c1cnc(O[C@@H]2CCCC(C)(C)C2)c(Cl)c1` [Example 687, 4-(5-chloro-6-(((1R)-3,3-dimethylcyclohexyl)oxy)-3-pyridinyl)-2-fluoro-5-methyl-N-(methylsulfonyl)benzamide, 4-(5-chloro-6-(((1S)-3,3-dimethylcyclohexyl)oxy)-3-pyridinyl)-2-fluoro-5-methyl-N-(methylsulfonyl)benzamide] had an IC50 of 75.9 nM. This IC50 lies about 1.5-fold lower than the previous one.

Compound `Cc1cc(C(=O)NS(C)(=O)=O)c(F)cc1-c1cnc(O[C@H](C)c2ccccc2C(F)(F)F)c(Cl)c1` [Example 688, 4-(5-chloro-6-((1R)-1-(2-(trifluoromethyl)phenyl)ethoxy)-3-pyridinyl)-2-fluoro-5-methyl-N-(methylsulfonyl)benzamide, 4-(5-chloro-6-((1S)-1-(2-(trifluoromethyl)phenyl)ethoxy)-3-pyridinyl)-2-fluoro-5-methyl-N-(methylsulfonyl)benzamide] yielded an IC50 of 86.3 nM.

In turn, `COc1cc(C(=O)NS(C)(=O)=O)ccc1-c1cnc(Oc2cccc(Cl)c2C)c(C#N)c1` [Example 690, 4-(6-(3-chloro-2-methylphenoxy)-5-cyano-3-pyridinyl)-3-methoxy-N-(methylsulfonyl)benzamide] had an IC50 of 46.9 nM.

`COc1cc(C(=O)NS(C)(=O)=O)ccc1-c1cnc(Oc2ccc(Cl)cc2Cl)c(C#N)c1` [Example 691, 4-(5-cyano-6-(2,4-dichlorophenoxy)-3-pyridinyl)-3-methoxy-N-(methylsulfonyl)benzamide] showed an IC50 of 83.8 nM.

`COc1cc(C(=O)NS(C)(=O)=O)ccc1-c1cnc(Oc2ccc(Cl)c(Cl)c2)c(C#N)c1` [Example 692, 4-(5-cyano-6-(3,4-dichlorophenoxy)-3-pyridinyl)-3-methoxy-N-(methylsulfonyl)benzamide] had a 50% inhibitory concentration (IC50) of 60.3 nM. This IC50 and that of the compound before are within 1.5-fold of each other.

Consider `COc1cc(C(=O)NS(C)(=O)=O)ccc1-c1cnc(Oc2c(Cl)cc(C)cc2Cl)c(C#N)c1` [Example 693, 4-(5-cyano-6-(2,6-dichloro-4-methylphenoxy)-3-pyridinyl)-3-methoxy-N-(methylsulfonyl)benzamide], for which half-maximal inhibition (IC50) required 22.1 nM. Against the preceding compound, the IC50 is about 2.7-fold lower.

`COc1cc(C(=O)NS(C)(=O)=O)c(F)cc1-c1cnc(N(C)C2CCC2)c(Cl)c1` [Example 697, 4-(5-chloro-6-(cyclobutyl(methyl)amino)-3-pyridinyl)-2-fluoro-5-methoxy-N-(methylsulfonyl)benzamide] yielded an IC50 of 146 nM. Compared with the last compound, the IC50 is about 6.6-fold higher.

Take `COc1cc(C(=O)NS(C)(=O)=O)c(F)cc1-c1cnc(OC2CCC2)c(Cl)c1` [Example 702, 4-(5-chloro-6-(cyclobutyloxy)-3-pyridinyl)-2-fluoro-5-methoxy-N-(methylsulfonyl)benzamide]: inhibition was half-maximal at 68.4 nM (IC50).

With `COc1cc(C(=O)NS(C)(=O)=O)c(F)cc1-c1cnc(Oc2cccc(Cl)c2C)c(Cl)c1` [Example 704, 4-(5-chloro-6-(3-chloro-2-methylphenoxy)-3-pyridinyl)-2-fluoro-5-methoxy-N-(methylsulfonyl)benzamide], the IC50 was 46.8 nM.

Still in this test, the particulars now being: in-vitro Nav 1.7 PX data.
Consider `COc1cc(C(=O)NS(C)(=O)=O)c(F)cc1-c1cnc(Oc2cc(F)ccc2F)c(Cl)c1` [Example 706, 4-(5-chloro-6-(2,5-difluorophenoxy)-3-pyridinyl)-2-fluoro-5-methoxy-N-(methylsulfonyl)benzamide], for which the IC50 is 130 nM.

Compound `COc1cc(C(=O)NS(C)(=O)=O)c(F)cc1-c1cnc(OCC2(C)CCCCC2)c(Cl)c1` [Example 714, 4-(5-chloro-6-((1-methylcyclohexyl)methoxy)-3-pyridinyl)-2-fluoro-5-methoxy-N-(methylsulfonyl)benzamide] came in with a half-maximal inhibitory concentration (IC50) of 98.6 nM.

`COc1cc(C(=O)NS(C)(=O)=O)c(F)cc1-c1cnc(Oc2cc3ccccc3cc2Cl)c(Cl)c1` [Example 715, 4-(5-chloro-6-((3-chloro-2-naphthalenyl)oxy)-3-pyridinyl)-2-fluoro-5-methoxy-N-(methylsulfonyl)benzamide] yielded a concentration for half-maximal inhibition (IC50) of 98.8 nM.

Consider `COc1cc(Oc2ncc(-c3cc(F)c(C(=O)NS(C)(=O)=O)cc3OC)cc2Cl)c(Cl)cc1Cl` [Example 716, 4-(5-chloro-6-(2,4-dichloro-5-methoxyphenoxy)-3-pyridinyl)-2-fluoro-5-methoxy-N-(methylsulfonyl)benzamide], for which the IC50 was 91.7 nM.

Consider `COc1cc(C(=O)NS(C)(=O)=O)c(F)cc1-c1cnc(Oc2ccc3ccccc3c2Cl)c(Cl)c1` [Example 717, 4-(5-chloro-6-((1-chloro-2-naphthalenyl)oxy)-3-pyridinyl)-2-fluoro-5-methoxy-N-(methylsulfonyl)benzamide], for which the IC50 turned out to be 99.3 nM.

For the compound `COc1cc(C(=O)NS(C)(=O)=O)c(F)cc1-c1cnc(OCC2C(C)(C)C2(C)C)c(Cl)c1` [Example 718, 4-(5-chloro-6-((2,2,3,3-tetramethylcyclopropyl)methoxy)-3-pyridinyl)-2-fluoro-5-methoxy-N-(methylsulfonyl)benzamide], the IC50 is 145 nM.

Regarding `COc1cc(C(=O)NS(C)(=O)=O)c(F)cc1-c1cnc(OC(C)C2CCC2)c(Cl)c1` (stereo not drawn) [Example 719, 4-(5-Chloro-6-(1-Cyclobutylethoxy)Pyridin-3-yl)-2-Fluoro-5-Methoxy-N-(Methylsulfonyl)Benzamide], the half-maximal inhibitory concentration (IC50) was 89 nM.

The compound `COc1cc(C(=O)NS(C)(=O)=O)c(F)cc1-c1cnc(N[C@@H]2CC23CCCC3)c(Cl)c1` [Example 720, 4-(5-chloro-6-((1R)-spiro[2.4]hept-1-ylamino)-3-pyridinyl)-2-fluoro-5-methoxy-N-(methylsulfonyl)benzamide, 4-(5-chloro-6-((1S)-spiro[2.4]hept-1-ylamino)-3-pyridinyl)-2-fluoro-5-methoxy-N-(methylsulfonyl)benzamide] gave an IC50 of 84.4 nM.

In turn, `COc1cc(C(=O)NS(C)(=O)=O)c(F)cc1-c1cnc(NCC2CCC(C)(C)CC2)c(Cl)c1` [Example 721, 4-(5-chloro-6-(((4,4-dimethylcyclohexyl)methyl)amino)-3-pyridinyl)-2-fluoro-5-methoxy-N-(methylsulfonyl)benzamide] displayed a half-maximal inhibitory concentration (IC50) of 87.2 nM.

For the compound `COc1cc(C(=O)NS(C)(=O)=O)c(F)cc1-c1cnc(N[C@@H]2CCC23CCC3)c(Cl)c1` [Example 722, 4-(5-chloro-6-((1R)-spiro[3.3]hept-1-ylamino)-3-pyridinyl)-2-fluoro-5-methoxy-N-(methylsulfonyl)benzamide, 4-(5-chloro-6-((1S)-spiro[3.3]hept-1-ylamino)-3-pyridinyl)-2-fluoro-5-methoxy-N-(methylsulfonyl)benzamide], the half-inhibitory concentration (IC50) is 110 nM. The IC50 values of the last two compounds are within 1.5-fold of each other.

With `COc1cc(C(=O)NS(C)(=O)=O)c(F)cc1-c1cnc(NCC2CC(C)(C)C2)c(Cl)c1` [Example 723, 4-(5-chloro-6-(((3,3-dimethylcyclobutyl)methyl)amino)-3-pyridinyl)-2-fluoro-5-methoxy-N-(methylsulfonyl)benzamide], the IC50 was found to be 74.8 nM.

`COc1cc(C(=O)NS(C)(=O)=O)c(F)cc1-c1cnc(NC2CCC(C)(C)CC2)c(Cl)c1` [Example 724, 4-(5-chloro-6-((4,4-dimethylcyclohexyl)amino)-3-pyridinyl)-2-fluoro-5-methoxy-N-(methylsulfonyl)benzamide] yielded an IC50 of 106 nM.

`CCC(CC)Nc1ncc(-c2cc(F)c(C(=O)NS(C)(=O)=O)cc2OC)cc1Cl` [Example 725, 4-(5-chloro-6-((1-ethylpropyl)amino)-3-pyridinyl)-2-fluoro-5-methoxy-N-(methylsulfonyl)benzamide] returned a 50% inhibitory concentration (IC50) of 96.5 nM. The IC50 values of the last two compounds are within 1.5-fold of each other.

Compound `COc1cc(C(=O)NS(C)(=O)=O)c(F)cc1-c1cnc(O[C@@H](C)CC(C)C)c(Cl)c1` [Example 726, 4-(5-chloro-6-(((1S)-1,3-dimethylbutyl)oxy)-3-pyridinyl)-2-fluoro-5-methoxy-N-(methylsulfonyl)benzamide] came in with an IC50 of 80.5 nM. The IC50 values of the last two compounds are within 1.5-fold of each other.

In turn, `COc1cc(C(=O)NS(C)(=O)=O)c(F)cc1-c1cnc(O[C@@H]2CCC[C@H]2C)c(Cl)c1` [Example 727, 4-(5-chloro-6-(((1R,2R)-2-methylcyclopentyl)oxy)-3-pyridinyl)-2-fluoro-5-methoxy-N-(methylsulfonyl)benzamide] gave an IC50 of 102 nM.

In the case of `COc1cc(C(=O)NS(C)(=O)=O)c(F)cc1-c1cnc(Sc2ccc(C)cc2)c(Cl)c1` [Example 728, 4-(5-chloro-6-((4-methylphenyl)sulfanyl)-3-pyridinyl)-2-fluoro-5-methoxy-N-(methylsulfonyl)benzamide], the IC50 is 49.5 nM.

The compound `COc1cc(C(=O)NS(C)(=O)=O)c(F)cc1-c1cnc(Sc2cc(C)cc(C)c2)c(Cl)c1` [Example 729, 4-(5-chloro-6-((3,5-dimethylphenyl)sulfanyl)-3-pyridinyl)-2-fluoro-5-methoxy-N-(methylsulfonyl)benzamide] gave an IC50 of 69.5 nM.

For `COc1cc(C(=O)NS(C)(=O)=O)c(F)cc1-c1cnc(SCc2cc(F)ccc2F)c(Cl)c1` [Example 730, 4-(5-chloro-6-((2,5-difluorobenzyl)sulfanyl)-3-pyridinyl)-2-fluoro-5-methoxy-N-(methylsulfonyl)benzamide], the 50% inhibitory concentration (IC50) was 58.5 nM.

The compound `COc1cc(C(=O)NS(C)(=O)=O)c(F)cc1-c1cnc(NCCC2CCCC2)c(Cl)c1` [Example 731, 4-(5-chloro-6-((2-cyclopentylethyl)amino)-3-pyridinyl)-2-fluoro-5-methoxy-N-(methylsulfonyl)benzamide] registered a half-inhibitory concentration (IC50) of 106 nM.
